This is an account of results in patent US9867833B2, “Serine/threonine kinase inhibitors” (GENENTECH, INC., priority 2013, dated 2018).

A value given as a limit tells only on which side of the number the result lay.

In the assay the target is human ERK-2 (Mitogen Activated Kinase 1) (Homo sapiens (Human), UniProt P28482). Nature of the assay: ERK-2 Enzymatic Assay. Format: biochemical. The settings on record: human ERK-2 enzyme 5 nM, 25 μM ATP, S/T17 peptide substrate; isomer = configuration of CR2R3. In short, it runs like this: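 Recombinant human ERK-2 (aa 8-360, N-terminal 6-His, E. coli) with 3-fold serially diluted compound. Per-well rates from linear fits converted to percent of control; IC50 by four-parameter fit.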
human ERK-2 (Mitogen Activated Kinase 1), sequence (P28482 8-360): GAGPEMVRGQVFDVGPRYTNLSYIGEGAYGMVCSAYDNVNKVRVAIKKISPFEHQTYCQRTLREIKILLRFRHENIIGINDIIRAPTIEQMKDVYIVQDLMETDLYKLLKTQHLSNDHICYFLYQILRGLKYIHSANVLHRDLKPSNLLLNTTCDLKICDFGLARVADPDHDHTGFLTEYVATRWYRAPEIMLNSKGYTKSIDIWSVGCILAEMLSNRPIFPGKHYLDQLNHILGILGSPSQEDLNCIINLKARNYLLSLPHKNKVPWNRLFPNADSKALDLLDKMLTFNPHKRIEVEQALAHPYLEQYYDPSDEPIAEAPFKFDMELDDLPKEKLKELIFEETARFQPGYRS
With `Cn1nccc1Nc1nccc(-c2cc3n4c(nnc4c2)[C@H](CCC(F)(F)F)CCO3)n1` [(R) I-102, N-(1-methyl-1H-pyrazol-5-yl)-4-(9-(3,3,3-trifluoropropyl)-8,9-dihydro-7H-6-oxa-1,2,2a^1-triazabenzo[cd]azulen-4-yl)pyrimidin-2-amine], half-maximal inhibition (IC50) was put at 1.7 nM. Consider `CCC[C@@H]1CCOc2cc(-c3ccnc(Nc4ccnn4C)c3)cc3nnc1n23` [(R) I-103, N-(1-methyl-1H-pyrazol-5-yl)-4-(9-propyl-8,9-dihydro-7H-6-oxa-1,2,2a^1-triazabenzo[cd]azulen-4-yl)pyridin-2-amine], for which it took 2.77 nM to reach half-maximal inhibition (IC50). In the case of `CCC[C@@H]1CCOc2cc(-c3ccnc(Nc4ccnn4C)n3)cc3nnc1n23` [(R) I-104, N-(1-methyl-1H-pyrazol-5-yl)-4-(9-propyl-8,9-dihydro-7H-6-oxa-1,2,2a^1-triazabenzo[cd]azulen-4-yl)pyrimidin-2-amine] it was 2.3 nM; in that of `CC(C)C[C@@H]1CCOc2cc(-c3ccnc(Nc4ccnn4C)n3)cc3nnc1n23` [(R) I-107, 4-(9-isobutyl-8,9-dihydro-7H-6-oxa-1,2,2a^1-triazabenzo[cd]azulen-4-yl)-N-(1-methyl-1H-pyrazol-5-yl)pyrimidin-2-amine], 1.85 nM; in that of `Cn1nccc1Nc1nccc(-c2cc3n4c(nnc4c2)C(Oc2ccc(F)cc2)CCO3)n1` [(R) I-108, 4-(9-(4-fluorophenoxy)-8,9-dihydro-7H-6-oxa-1,2,2a^1-triazabenzo[cd]azulen-4-yl)-N-(1-methyl-1H-pyrazol-5-yl)pyrimidin-2-amine], 2.95 nM. Next, `Cc1csc(C[C@H]2CCOc3cc(-c4ccnc(Nc5ccnn5C)n4)cc4nnc2n34)n1` [(R) I-109, N-(1-methyl-1H-pyrazol-5-yl)-4-(9-((4-methylthiazol-2-yl)methyl)-8,9-dihydro-7H-6-oxa-1,2,2a^1-triazabenzo[cd]azulen-4-yl)pyrimidin-2-amine]: less than 0.02 nM; `Clc1cnn(C[C@H]2CCOc3cc(-c4ccnc(NC5CCOCC5)n4)cc4nnc2n34)c1` [(R) I-110, 4-(9-((4-chloro-1H-pyrazol-1-yl)methyl)-8,9-dihydro-7H-6-oxa-1,2,2a^1-triazabenzo[cd]azulen-4-yl)-N-(tetrahydro-2H-pyran-4-yl)pyrimidin-2-amine]: less than 0.02 nM; `Cn1nccc1Nc1nccc(-c2cc3n4c(nnc4c2)[C@H](Oc2ccc(F)c(F)c2)CCO3)n1` [(R) I-111, 4-(9-(3,4-difluorophenoxy)-8,9-dihydro-7H-6-oxa-1,2,2a^1-triazabenzo[cd]azulen-4-yl)-N-(1-methyl-1H-pyrazol-5-yl)pyrimidin-2-amine]: 2.6 nM. Turning to `Cn1nccc1Nc1nccc(-c2cc3n4c(nnc4c2)[C@@H](c2ccccc2)CN3)n1` [(S) I-1, N-(1-methyl-1H-pyrazol-5-yl)-4-(3-phenyl-4,5-dihydro-3H-1,2,2a^1,5-tetraazaacenaphthylen-7-yl)pyrimidin-2-amine], the half-maximal inhibitory concentration (IC50) (as a rule, the point on the concentration scale where inhibition reaches its midpoint) amounted to 1.1 nM. With `Cn1nccc1Nc1nccc(-c2cc3n4c(nnc4c2)[C@@H](Cc2ccccc2)CN3)n1` [(S) I-2, (S)-4-(3-benzyl-4,5-dihydro-3H-1,2,2a^1,5-tetraazaacenaphthylen-7-yl)-N-(1-methyl-1H-pyrazol-5-yl)pyrimidin-2-amine], the IC50 was 0.02 nM. The compound `Cn1nccc1Nc1nccc(-c2cc3n4c(nnc4c2)[C@@H](Cc2ccc(Cl)cc2)CN3)n1` [(S) I-5, 4-(3-(4-chlorobenzyl)-4,5-dihydro-3H-1,2,2a^1,5-tetraazaacenaphthylen-7-yl)-N-(1-methyl-1H-pyrazol-5-yl)pyrimidin-2-amine] registered an IC50 of less than 0.02 nM. Regarding `Cn1nccc1Nc1cc(-c2cc3n4c(nnc4c2)[C@@H](Cc2ccccc2)CN3)ccn1` [(S) I-7, 4-(3-benzyl-4,5-dihydro-3H-1,2,2a^1,5-tetraazaacenaphthylen-7-yl)-N-(1-methyl-1H-pyrazol-5-yl)pyridin-2-amine], the IC50 is less than 0.02 nM. As to `Cn1nccc1Nc1cc(-c2cc3n4c(ncc4c2)[C@@H](Cc2ccc(Cl)cc2)CN3)ccn1` [(S) I-8, 4-(3-(4-chlorobenzyl)-4,5-dihydro-3H-1,2,2a^1,5-tetraazaacenaphthylen-7-yl)-N-(1-methyl-1H-pyrazol-5-yl)pyridin-2-amine], the IC50 was less than 0.02 nM. Next, `CN1C[C@H](Cc2ccccc2)c2nnc3cc(-c4ccnc(Nc5ccnn5C)n4)cc1n23` [(S) I-9, 4-(3-benzyl-5-methyl-4,5-dihydro-3H-1,2,2a^1,5-tetraazaacenaphthylen-7-yl)-N-(1-methyl-1H-pyrazol-5-yl)pyrimidin-2-amine]: less than 0.02 nM; `CC(C)C[C@H]1CNc2cc(-c3ccnc(Nc4ccnn4C)n3)cc3nnc1n23` [(S) I-10, 4-(3-isobutyl-4,5-dihydro-3H-1,2,2a^1,5-tetraazaacenaphthylen-7-yl)-N-(1-methyl-1H-pyrazol-5-yl)pyrimidin-2-amine]: less than 0.02 nM; `COc1ccc(C[C@H]2CNc3cc(-c4ccnc(Nc5ccnn5C)n4)cc4nnc2n34)cc1` [(S) I-11, 4-(3-(4-methoxybenzyl)-4,5-dihydro-3H-1,2,2a^1,5-tetraazaacenaphthylen-7-yl)-N-(1-methyl-1H-pyrazol-5-yl)pyrimidin-2-amine]: less than 0.02 nM.

In turn, `COc1ccc(C[C@H]2CNc3cc(-c4ccnc(Nc5ccnn5C)n4)cc4nnc2n34)cc1F` [(S) I-12, 4-(3-(3-fluoro-4-methoxybenzyl)-4,5-dihydro-3H-1,2,2a^1,5-tetraazaacenaphthylen-7-yl)-N-(1-methyl-1H-pyrazol-5-yl)pyrimidin-2-amine] displayed an IC50 of less than 0.02 nM. In the case of `Cn1nccc1Nc1nccc(-c2cc3n4c(nnc4c2)[C@@H](Cc2ccc(Cl)c(F)c2)CN3)n1` [(S) I-14, 4-(3-(4-chloro-3-fluorobenzyl)-4,5-dihydro-3H-1,2,2a^1,5-tetraazaacenaphthylen-7-yl)-N-(1-methyl-1H-pyrazol-5-yl)pyrimidin-2-amine] it was less than 0.02 nM. Next, `Cn1nccc1Nc1nccc(-c2cc3n4c(nnc4c2)[C@H](Cc2ccccc2)CO3)n1` [(S) I-15, 4-(3-benzyl-3,4-dihydro-5-oxa-1,2,2a^1-triazaacenaphthylen-7-yl)-N-(1-methyl-1H-pyrazol-5-yl)pyrimidin-2-amine]: 2.24 nM; `COc1ccc(C[C@H]2CN(C)c3cc(-c4ccnc(Nc5ccnn5C)c4)cc4nnc2n34)cc1` [(S) I-18, 4-(3-(4-methoxybenzyl)-5-methyl-4,5-dihydro-3H-1,2,2a^1,5-tetraazaacenaphthylen-7-yl)-N-(1-methyl-1H-pyrazol-5-yl)pyridin-2-amine]: 55.8 nM. In turn, `CC(C)C[C@H]1CN(C)c2cc(-c3ccnc(Nc4ccnn4C)c3)cc3nnc1n23` [(S) I-20, 4-(3-isobutyl-5-methyl-4,5-dihydro-3H-1,2,2a^1,5-tetraazaacenaphthylen-7-yl)-N-(1-methyl-1H-pyrazol-5-yl)pyridin-2-amine] had an IC50 of 0.316 nM. Next, `Cn1nccc1Nc1nccc(-c2cc3n4c(nnc4c2)[C@@H](Cc2ccc(F)cc2)CN3)n1` [(S) I-21, 4-(3-(4-fluorobenzyl)-4,5-dihydro-3H-1,2,2a^1,5-tetraazaacenaphthylen-7-yl)-N-(1-methyl-1H-pyrazol-5-yl)pyrimidin-2-amine]: less than 0.02 nM. In the case of `CN1C(=O)C[C@H](Cc2ccc(Cl)cc2)c2nnc3cc(-c4ccnc(Nc5ccnn5C)n4)cc1n23` [(S) I-22, 9-(4-chlorobenzyl)-6-methyl-4-(2-((1-methyl-1H-pyrazol-5-yl)amino)pyrimidin-4-yl)-8,9-dihydro-1,2,2a^1,6-tetraazabenzo[cd]azulen-7(6H)-one] it was less than 0.02 nM; in that of `COc1ccc(C[C@H]2CNc3cc(-c4ccnc(Nc5ccnn5C)n4)cc4nnc2n34)cn1` [(S) I-24, 4-(3-((6-methoxypyridin-3-yl)methyl)-4,5-dihydro-3H-1,2,2a^1,5-tetraazaacenaphthylen-7-yl)-N-(1-methyl-1H-pyrazol-5-yl)pyrimidin-2-amine], less than 0.02 nM. Regarding `Cn1nccc1Nc1nccc(-c2cc3n4c(nnc4c2)[C@@H](COCc2ccccc2)CCO3)n1` [(S) I-29, 4-(9-((benzyloxy)methyl)-8,9-dihydro-7H-6-oxa-1,2,2a^1-triazabenzo[cd]azulen-4-yl)-N-(1-methyl-1H-pyrazol-5-yl)pyrimidin-2-amine], the IC50 is less than 0.02 nM. In the case of `Cn1nccc1Nc1cc(-c2cc3n4c(nnc4c2)[C@@H](Cc2ccccc2Cl)CCO3)ccn1` [(S) I-30, 4-(9-(2-chlorobenzyl)-8,9-dihydro-7H-6-oxa-1,2,2a^1-triazabenzo[cd]azulen-4-yl)-N-(1-methyl-1H-pyrazol-5-yl)pyridin-2-amine] it was less than 0.02 nM; in that of `CN1C[C@H](Cc2ccc(F)cc2)c2nnc3cc(-c4ccnc(Nc5ccnn5C)n4)cc1n23` [(S) I-31, 4-(3-(4-fluorobenzyl)-5-methyl-4,5-dihydro-3H-1,2,2a^1,5-tetraazaacenaphthylen-7-yl)-N-(1-methyl-1H-pyrazol-5-yl)pyrimidin-2-amine], less than 0.02 nM; in that of `Cn1nccc1Nc1nccc(-c2cc3n4c(nnc4c2)[C@@H](Cc2ccc(Cl)cc2)CCO3)n1` [(S) I-36, 4-(9-(4-chlorobenzyl)-8,9-dihydro-7H-6-oxa-1,2,2a^1-triazabenzo[cd]azulen-4-yl)-N-(1-methyl-1H-pyrazol-5-yl)pyrimidin-2-amine], less than 0.02 nM.

In turn, `Cn1nccc1Nc1cc(-c2cc3n4c(nnc4c2)[C@H](Cc2ccccc2)CO3)ccn1` [(S) I-38, 4-(3-benzyl-3,4-dihydro-5-oxa-1,2,2a^1-triazaacenaphthylen-7-yl)-N-(1-methyl-1H-pyrazol-5-yl)pyridin-2-amine] yielded an IC50 of 4.34 nM. Next, `CN1C(=O)C[C@H](Cc2ccc(Cl)cc2)c2nnc3cc(-c4ccnc(Nc5ccnn5C)c4)cc1n23` [(S) I-40, 9-(4-chlorobenzyl)-6-methyl-4-(2-((1-methyl-1H-pyrazol-5-yl)amino)pyridin-4-yl)-8,9-dihydro-1,2,2a^1,6-tetraazabenzo[cd]azulen-7(6H)-one]: less than 0.02 nM.
